Measurements: patent US20250136559A1, “SMO MODULATOR COMPOUNDS” (OMASS THERAPEUTICS LIMITED, priority 2022, published 2025)

Assays:
Format in all cases: cell-based
mouse SMO^WT = biological target: T1, mouse SMO^WT (Mus musculus, UniProt P56726); test: Mouse assay: Gli1 qPCR in MEF cells stably expressing mouse SMO WT; settings: mSHh-treated, 24 hours; for IC50: Gli1 inhibition by qPCR, read-out: Mouse WT pIC50 (converted); for Mouse WT % Inh: percentage Gli1 inhibition
T1 construct: expressed in transfected cells
T1 sequence (P56726 33-793): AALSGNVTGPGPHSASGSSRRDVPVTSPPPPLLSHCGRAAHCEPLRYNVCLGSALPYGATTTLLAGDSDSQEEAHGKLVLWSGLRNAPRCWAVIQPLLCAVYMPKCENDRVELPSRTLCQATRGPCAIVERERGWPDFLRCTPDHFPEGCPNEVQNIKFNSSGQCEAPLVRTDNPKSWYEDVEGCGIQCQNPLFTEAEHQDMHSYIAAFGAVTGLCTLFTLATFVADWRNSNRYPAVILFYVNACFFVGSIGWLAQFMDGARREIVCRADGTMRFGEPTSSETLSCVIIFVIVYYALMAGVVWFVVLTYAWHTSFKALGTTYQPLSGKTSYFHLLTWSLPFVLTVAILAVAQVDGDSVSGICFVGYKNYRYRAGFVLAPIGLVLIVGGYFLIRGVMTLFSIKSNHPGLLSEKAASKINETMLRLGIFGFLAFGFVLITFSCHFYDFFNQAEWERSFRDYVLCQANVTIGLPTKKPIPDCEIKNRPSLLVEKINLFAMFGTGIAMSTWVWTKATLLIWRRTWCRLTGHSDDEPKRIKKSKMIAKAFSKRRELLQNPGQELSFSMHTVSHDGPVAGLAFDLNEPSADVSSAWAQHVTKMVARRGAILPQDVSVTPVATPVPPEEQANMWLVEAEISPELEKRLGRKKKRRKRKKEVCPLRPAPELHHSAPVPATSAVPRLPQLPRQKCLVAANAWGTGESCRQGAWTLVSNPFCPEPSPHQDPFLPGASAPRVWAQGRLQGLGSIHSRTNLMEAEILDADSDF
Experimental: (§1) Cell culture. All materials were purchased from Sigma-Aldrich, unless otherwise stated.
(§2) Compound treatment. […] After 1 hour incubation, cells were treated with assay medium containing mSHh prepared at 2.5× of final assay concentrations specified in the text and incubated for a further 24 hours at 37′C in a humidified 95% air/5% CO2 atmosphere prior to qPCR analysis.
(§3) Cell lysis and one-step qPCR. The Cells-to-CT™ 1-Step TaqMan® Kit was used in conjunction with TaqMan primer-probe assays for the detection of Gli1 (FAM, Mm00494654_m1) and Gusb (VIC, Mm01197698_m1) genes (all purchased from Life Technologies). Following 24 hours cell treatment, spent medium was removed and cells were washed with PBS before the application of lysis and stop solution as per manufacturer's instructions. The qPCR reactions were run in a 384-well PCR plate using master mix prepared according to manufacturer's instructions and cell lysate samples from treatment wells. Real-time PCR amplification was detected using the Bio-Rad CFX384 Touch PCR system. Four experimental replicates (two cell replicates and two qPCR replicates) were performed for each compound concentration tested. Real-time data were analysed using the CFX Maestro software (Bio-Rad) and obtained expression values were converted to percentage Gli1 inhibition by normalising to the average Gli1 expression of mSHh-treated control samples.

mouse SMO^D473H = biological target: T2, mouse SMO^D473H (Mus musculus, UniProt P56726, D477H); test: Mouse assay: Gli1 qPCR in MEF cells stably expressing mouse SMO D473H; settings: mSHh-treated, 24 hours; for IC50: Gli1 inhibition by qPCR, read-out: Mouse D473H pIC50 (converted); for Mouse D473H % Inh: percentage Gli1 inhibition
T2 construct: expressed in transfected cells
T2 sequence (P56726 33-793 D477H): as the sequence (P56726 33-793) above, with D445H counted along it
Experimental: as §1, §2, §3

mouse SMO^W535L = biological target: T3, mouse SMO^W535L (Mus musculus, UniProt P56726, W539L); test: Mouse assay: Gli1 qPCR in MEF cells stably expressing mouse SMO W535L; settings: mSHh-treated, 24 hours; for IC50: Gli1 inhibition by qPCR, read-out: Mouse W535L pIC50 (converted); for Mouse W535L % Inh: percentage Gli1 inhibition
T3 construct: expressed in transfected cells
T3 sequence (P56726 33-793 W539L): as the sequence (P56726 33-793) above, with W507L counted along it
Experimental: as §1, §2, §3

Row | Structure (SMILES) | IC50 (mouse SMO^WT) [nM] | Mouse WT % Inh (mouse SMO^WT) [%] | IC50 (mouse SMO^D473H) [nM] | Mouse D473H % Inh (mouse SMO^D473H) [%] | IC50 (mouse SMO^W535L) [nM] | Mouse W535L % Inh (mouse SMO^W535L) [%]
1 | Cc1ccc(Cc2nc(-c3ccc(NC(=O)c4cccc(CN5CCS(=O)(=O)CC5)c4)cc3)no2)cc1 [Example 4-16, 3-[(1,1-Dioxo-1,4-thiazinan-4-yl)methyl]-N-[4-[5-[(4-methylphenyl)methyl]-1,2,4-oxadiazol-3-yl]phenyl]benzamide] | 2 | 97.5 | 12.6 | 98.8 | 20 | 72.5
2 | O=C(Nc1ccc(-c2cc(C3CC3)no2)cc1)c1cccc(CN2CCS(=O)(=O)CC2)c1 [Example 4-6] | 12.6 | 99.0 | 79.4 | 99.3 | 126 | 76.9
3 | O=C(Nc1ccc(-c2noc(C3CCC3)n2)cc1)c1cccc(CN2CCS(=O)(=O)CC2)c1 [Example 4-13, N-[4-(5-Cyclobutyl-1,2,4-oxadiazol-3-yl)phenyl]-3-[(1,1-dioxo-1,4-thiazinan-4-yl)methyl]benzamide] | 50.1 | 98.8 | 316 | 99.0 | 501 | 77.4
4 | O=C(Nc1ccc(-c2nc(C3CCCCC3)n[nH]2)cc1)c1cccc(CN2CCS(=O)(=O)CC2)c1 [Example 3-6, N-[4-(3-Cyclohexyl-1H-1,2,4-triazol-5-yl)phenyl]-3-[(1,1-dioxo-1,4-thiazinan-4-yl)methyl]benzamide] | 31.6 | 98.4 | 200 | 98.4 | 79.4 | 51.7
5 | CC(C)(C)c1n[nH]c(-c2ccc(NC(=O)c3cccc(CN4CCS(=O)(=O)CC4)c3)cc2)n1 [Example 3-2, N-[4-(5-tert-Butyl-1H-1,2,4-triazol-3-yl)phenyl]-3-[(1,1-dioxo-1,4-thiazinan-4-yl)methyl]benzamide] | 25.1 | 97.3 | 501 | 91.0 | 100 | 41.6
6 | O=C(Nc1ccc(-c2nc(-c3ccccn3)n[nH]2)cc1)c1cccc(CN2CCS(=O)(=O)CC2)c1 [Example 3-15, 3-[(1,1-Dioxo-1,4-thiazinan-4-yl)methyl]-N-[4-(3-pyridin-2-yl-1H-1,2,4-triazol-5-yl)phenyl]benzamide] | 79.4 | 98.9 | 1000 | 97.0 | 398 | 53.4
7 | O=C(Nc1ccc(-c2nc(Cc3ccccc3)n[nH]2)cc1)c1cccc(CN2CCS(=O)(=O)CC2)c1 [Example 3-17, N-[4-(3-Benzyl-1H-1,2,4-triazol-5-yl)phenyl]-3-[(1,1-dioxo-1,4-thiazinan-4-yl)methyl]benzamide] | 6.31 | 99.4 | 100 | 99.0 | 39.8 | 54.3
8 | O=C(Nc1ccc(-c2nc(Cc3ccc(F)cc3)n[nH]2)cc1)c1cccc(CN2CCS(=O)(=O)CC2)c1 [Example 3-21, 3-[(1,1-Dioxo-1,4-thiazinan-4-yl)methy]-N-[4-[3-[(4-fluorophenyl)methyl]-1H-1,2,4-triazol-5-yl]phenyl]benzamide] | 100 | 97.5 | 794 | 82.3 | 501 | 64.1
9 | O=C(Nc1ccc(-c2cc(C3CC3)[nH]n2)nc1)c1ccc(Cl)c(CN2CCS(=O)(=O)CC2)c1 [Example 5-3, 4-Chloro-N-[6-(5-cyclopropyl-1H-pyrazol-3-yl)pyridin-3-yl]-3-[(1,1-dioxo-1,4-thiazinan-4-yl)methyl]benzamide] | 63.1 | 98.6 |  |  |  | 
10 | Cc1oc(-c2ccc(NC(=O)c3ccc(Cl)c(CN4CCS(=O)(=O)CC4)c3)cn2)nc1Br [Example 5-1, N-[6-(4-bromo-5-methyl-1,3-oxazol-2-yl)pyridin-3-yl]-4-chloro-3-[(1,1-dioxo-1,4-thiazinan-4-yl)methyl]benzamide] | 20 | 99.3 |  |  |  | 
